In patent US5972927A, “Diazepinoindoles as phosphodiesterase 4 inhibitors” (Jouveinal, priority 1996, dated 1999):
Structures can show the parent of a compound that is named as a salt.

Tested on: inflammatory cells in rodents
Experiment: not given
Conditions: in vitro; prior art; cited from earlier work

Structure (SMILES)	activity of inflammatory cells in rodents
COc1ccc(C2CNC(=O)C2)cc1OC1CCCC1 (stereo not shown) [rolipram]	inhibits the activity of inflammatory cells in rodents: inhibition of the synthesis of mediators by mastocytes, eosinophil and basophil polymorphonuclear leukocytes and monocytes; inhibition of chemotaxis and of the degranulation of polymorphonuclear leukocytes

Tested on: not given
Experiment: not given
Conditions: prior art; cited from earlier work

Structure (SMILES)	therapeutic index	undesirable effects
Cn1c(=O)c2[nH]cnc2n(C)c1=O [theophylline]	low therapeutic index	undesirable effects such as nausea and headaches
COc1ccc(C2CNC(=O)C2)cc1OC1CCCC1 (stereo not shown) [rolipram]		undesirable effects of the type involving nausea and vomiting

Molecular target: PDE 4
Experiment: Inhibition of PDE 4 compared with rolipram, enzyme preparation obtained from the line U937
Assay type: biochemical, human
Conditions: ratio to rolipram on the same enzymatic preparation; PDE 4 from U937 line; inhibitor 0.1 to 100 μM
Method: The capacity of the compounds of formula (I) of the invention to inhibit cyclic nucleotide phosphodiesterases is evaluated by measuring their IC50 (concentration necessary to inhibit the enzymatic activity by 50%). In the case of PDEs 4, this value is compared to the IC50 of rolipram, a PDE 4-specific inhibitor, relative to the IC50 of rolipram on the IC50 of the product to be tested with respect to the same enzymatic preparation.
The various types of phosphodiesterase are obtained partially purified on a DEAE-cellulose column from guinea pig trachea and dog aorta according to a method adapted from W. J. Thompson et al., 1979, Advances in Cyclic Nucleotide Research, Vol. 10: 69-92, ed. G. Brooker et al. Raven Press, New York, and from P. J. Silver et al., 1988, Eur. J. Pharmacol. 150: 85-94, and from the U937 cell line of human origin, according to a method adapted from T. J. Torphy et al., 1992, J. Pharm. Exp. Ther. 263: 1195-1205.
Measurement of the enzymatic activity for the various types of PDE, and in particular for the PDEs 4, is then made according to a method also adapted from W. J. Thompson, Ibidem.
In order to determine the IC50, the enzymatic activity is measured in the presence of the inhibitor over a range of concentrations from 0.1 to 100 μM.
The following table illustrates the inhibitory activity of PDE 4 when compared with that of rolipram on an enzyme preparation obtained from the line U937.

Structure (SMILES)	IC50 rolipram / IC50 example
CN(C)c1cc2c3c(c1)C(c1ccccc1)=N[C@@H](NC(=O)c1cc(Cl)c(N)c(Cl)c1)C(=O)N3CC2 [Example 21, (3R)-4-Amino-3,5-dichloro-N-(9-dimethylamino-4-oxo-1-phenyl-3,4,6,7-tetrahydro[1,4]-diazepino[6,7,1-hi]indol-3-yl)benzamide]	3.3
Cc1cc2nnc(C(=O)N[C@@H]3N=C(c4ccccc4)c4cc(N)cc5c4N(CC5)C3=O)c(C)n2n1 [Example 20, (3R)-4,7-Dimethylpyrazolo[5,1-c][1,2,4]triazine-3-carboxylic acid (9-amino-4-oxo-1-phenyl-3,4,6,7-tetrahydro[1,4]-diazepino[6,7,1-hi]indol-3-yl)amide]	1.1
Nc1cc2c3c(c1)C(c1ccccc1)=N[C@@H](NC(=O)c1cnc4ccccc4c1)C(=O)N3CC2 [Example 19, (3R)-Quinoline-3-carboxylic acid (9-amino-4-oxo-1-phenyl-3,4,6,7-tetrahydro[1,4]-diazepino[6,7,1-hi]indol-3-yl)amide]	1.4
Cc1cc2nnc(C(=O)N[C@@H]3N=C(c4ccccc4)c4cc(N5CCCC5)cc5c4N(CC5)C3=O)c(C)n2n1 [Example 32, (3R) 4,7-dimethyl-pyrazolo[5,1-c][1,2,4]triazine-3-carboxylic acid [4-oxo-1-pheny-9-(pyrrolidin-1-yl)-3,4,6,7-tetrahydro[1,4]diazepino[6,7,1-hi]indol-3-yl)-amide]	4.0
COc1cc(N)c(Cl)cc1C(=O)N[C@@H]1N=C(c2ccccc2)c2cc(N)cc3c2N(CC3)C1=O [Example 8, (3R)-4-Amino-N-(9-amino-4-oxo-1-phenyl-3,4,6,7-tetrahydro[1,4]diazepino[6,7,1-hi]indol-3-yl)-5-chloro-2-methoxybenzamide]	3.4
Nc1cc2c3c(c1)C(c1ccccc1)=N[C@@H](NC(=O)c1ccncc1)C(=O)N3CC2 [12A (salt)]	5.7
CC(C)(C)OC(=O)Nc1cnccc1C(=O)N[C@@H]1N=C(c2ccccc2)c2cc(N)cc3c2N(CC3)C1=O [Example 13, (3R)-3-t-Butyloxycarbonylamino-N-(9-amino-4-oxo-1-phenyl-3,4,6,7-tetrahydro[1,4]diazepino[6,7,1-hi]indol-3-yl)isonicotinamide]	1.6
Nc1cc2c3c(c1)C(c1ccccc1)=N[C@@H](NC(=O)c1cc4ccccc4o1)C(=O)N3CC2 [Example 30, (3R)N-(9-amino-4-oxo-1-phenyl-3,4, 67-tetrahydro[1,4]diazepino[6,7,1-hi]indol-3-yl)-2-benzofuranecarboxamide]	15.0
O=C(N[C@@H]1N=C(c2ccccc2)c2cc(O)cc3c2N(CC3)C1=O)c1cc2ccccc2cn1 [Example 1, (3R)-Isoguinoline-3-carboxylic acid (9-hydroxy-4-oxo-1-phenyl-3,4,6,7-tetrahydro-[1,4]diazepino[6,7,1-hi]indol-3-yl)amide]	1.9
Nc1cc2c3c(c1)C(c1ccccc1)=N[C@@H](NC(=O)c1cc4ccccc4cn1)C(=O)N3CC2 [Example 18, (3R)-Isoquinoline-3-carboxylic acid (9-amino-4-oxo-1-phenyl-3,4,6,7-tetrahydro[1,4]-diazepino[6,7,1-hi]indol-3-yl)amide]	11.0
Nc1cc2c3c(c1)C(c1ccccc1)=N[C@@H](NC(=O)c1cc(Cl)c(N)c(Cl)c1)C(=O)N3CC2 [Example 4, (3R)-4-Amino-N-(9-amino-4-oxo-1-phenyl-3,4,6,7-tetrahydro[1,4]diazepino [6,7,1-hi]indol-3-yl)-3,5-dichlorobenzamide]	33.0
Nc1cc2c3c(c1)C(c1ccccc1)=N[C@@H](NC(=O)c1ccncc1)C(=O)N3CC2 [Example 12, (3R)-N-(9-Amino-4-oxo-1-phenyl-3,4,6,7-tetra-hydro[1,4]diazepinor [6,7,1-hi]indol-3-yl)-isonicotinamide]	2.0
